Key:
SKMEL-28 cells = assay: 2-D gel electrophoresis proteomic analysis; type: cell-based
Protocol: Protein was isolated from the treated and control flask after 4, 8, 12, and 24 hours. For isolation of proteins, cells were washed three times with 5 mL of ice cold PBS at a pH of 7.4. The cells were then scraped in 3 mL of PBS, pelleted by centrifuge, and re-suspended in a lysis buffer at pH 7.4 (80 mM TRIS-HCl, 1% SDS, with protease and phosphotase inhibitors). Protein concentrations were quantified using the BCA method.
The gels were run in duplicate.
The first experimental set processed and evaluated by Western blot and 2-D gel electrophoresis was the skin cancer cell line SKMEL-28.
A comparative analysis of 943 spots across all twenty-four gels was performed, comparing the control sample against all of the treated samples. The analysis included the identification of spot changes over the time course due to increase, decrease, or post-translational modification.
The analysis found thirty-two statistically significant differential spot changes. […] The characterized peptides were searched against protein databases with Mascot and MSRAT software analysis to identify the protein (Table 2).

SkBr-3 cells = assay: Real-time PCR Apoptosis Array; type: cell-based, human
Protocol: RNA was quantified by measuring Optical Density at 260 nm.
Changes in mRNA levels were evaluated using real-time PCR quantification to assess mRNA levels in pre-selected subsets containing […] pathway specific targets.
The assay method of RT-PCR was utilized to provide a measure of mRNA level changes to a total of 84 apoptotic pathway related proteins.

[1] = system: HepG2 (liver cancer) cells; assay: Real-time PCR Diabetes Array; type: cell-based; settings: 100 μM Q10
Protocol: The treatment was initiated on 1×10^5 cells per well, following the procedure utilized in the PaCa2 cells (above, Examples 9-11). However, the total amount of RNA that was extracted from these samples was lower than expected. Reverse transcription is normally done using 1 μg of total RNA (determined by measurement at 260 nm). The maximum volume that can be used per reverse transcription is 8 μl.

various cell types = assay: Induction of early apoptosis in oncogenic and normal cell types (Bcl-2, caspase, annexin V); type: cell-based
Protocol: CoQ10 treatment of cells was carried out as described in detail below in the Materials and Methods. Induction of apoptosis was assessed in the treated cells by monitoring indicators of early apoptosis (e.g., Bcl-2 expression, caspase activation and by using annexin V assays) as described below. From these studies, the minimal CoQ10 dosage, e.g., concentration of CoQ10 and time of treatment, required to induce apoptosis in the panel of cell lines was determined.
Cells were cultured in T-75 flasks with relevant medium supplemented with 10% Fetal Bovine Serum (FBS), 1% PSA (penicillin, streptomycin, amphotericin B) (Invitrogen and Cellgro) in a 37° C. incubator with 5% CO2 levels until 70-80% confluence was reached. To harvest cells for treatment, flasks were primed with 1 mL Trypsin, aspirated, trypsinized with an additional 3 mL, and incubated at 37° C. for 3-5 minutes. Cells were then neutralized with an equal volume of media and the subsequent solution was centrifuged at […] for 8 minutes. The supernatant was aspirated and the cells were resuspended with 8.5 ml of media. A mixture of 500 ul of the resuspension and 9.5 ml of […] was read twice by a coulter counter and the appropriate number of cells to be seeded into each dish was determined. Control and concentration ranging from 0-200 μM groups were examined in triplicate. From a 500 μM CoQ-10 stock solution, serial dilutions were performed to achieve desired experimental concentration in appropriate dishes. Dishes were incubated in a 37° C. incubator with 5% CO2 levels for 0-72 hours depending on cell type and experimental protocol.
The volume of sample to load per well was determined using the raw mean concentration of protein obtained from the BCA protein assay. Approximately 30-60 μg of protein were loaded for each treatment time point. Proteins were run in triplicate on 12% Tris-HCl ready gels (Bio-Rad) or hand cast gels in 1× running buffer at 85 and 100 volts. Proteins were then transferred onto nitrocellulose paper for an hour at 100 volts, and blocked for another hour in a 5% milk solution. Membranes were placed in primary antibody (1 uL Ab:1000 uL TBST) (Cell Signaling) overnight at […] The following day, membranes were washed three times for ten minutes each with Tris-Buffered Saline Tween-20 (TBST), and secondary antibody (anti-rabbit; 1 uL Ab: 1000 uL TBST) was applied for an hour at […] Membranes were washed again three times for ten minutes with TBST and chemoluminescence using Pico or Femto substrate was completed (Pierce). Membranes were then developed at time intervals that produced the best visual results. After developing, membranes were kept in TBST at […] until Actin levels could be measured.
Cells were washed twice in PBS10× and resuspended in Binding Buffer (0.1 M HEPES, pH 7.4; 1.4 M NaCl; 25 mM CaCl2). Samples of 100 μl were added to a culture tube with 5 μl of annexin-PE dye or […]. The cells were mixed and incubated without light at room temperature for 15 minutes. After which, 400 μl of 1× Binding Buffer was added to each sample and they were subjected to analysis by flow cytometry.

[2] = system: MCF-7 breast cancer cells; assay: OCR and ECAR, SeaHorse XF analyzer; type: cell-based
Description: (SeaHorse Biosciences Inc, North Billerica, Mass.).
In contrast, cancer cells (e.g., MCF-7, PaCa-2) are inherently primed to culture at higher levels of glucose compared to normal cells due to their glycolytic phenotype for maintenance in culture.

HASMC cells = assay: Diabetes PCR array; type: cell-based, human
Protocol: The HK-2 and HASMC cells are normally maintained in culture at 5.5 mM glucose, which is a concentration that corresponds to a range considered normal in human blood. However, in order to simulate a diabetic environment, both cell lines were subsequently maintained at 22 mM glucose, which corresponds to the range observed in human blood associated with chronic hyperglycemia. The cells were subsequently allowed to propagate over 3 passages so that the intracellular regulation processes were functionally adapted to mimic a diabetic state. The choice of cell line was based on the physiologic influence of diabetes on renal dysfunction and progression to end-stage renal disease (ESRD) in addition to the progressive pathophysiology of a compromised cardiovascular function.
The Diabetes PCR array (SABiosciences) offers a screen for 84 genes simultaneously.
A stringent analysis of the Real time PCR data of the HASMC cell samples on the Diabetes Arrays (Cat #PAHS-023E, SABiosciences Frederick Md.) was made to exclude all results where gene regulation was not at least a two-fold regulation over HASMC normal untreated cells with a p value of less than 0.05.

COC1=C(OC)C(=O)C(C/C=C(\C)CC/C=C(\C)CC/C=C(\C)CC/C=C(\C)CC/C=C(\C)CC/C=C(\C)CC/C=C(\C)CC/C=C(\C)CC/C=C(\C)CCC=C(C)C)=C(C)C1=O [Q10, Coenzyme Q10]
Transaldolase 1 level (SKMEL-28 cells): decrease of Transaldolase 1
mRNAs Bcl2, Bcl2L1, Bcl2L11, Birc6, Bax, Xiap, Hprt1, Apaf1, Abl1, Braf (SkBr-3 cells; SkBr3, Q10 24 hr): affected
Bcl-xl mRNA level (SkBr-3 cells; apoptosis array): significant up-regulation
PPARGC1A regulation ([1]; HepG2, 48 hours): normalized or were slightly upregulated
PRKAA1 regulation ([1]; HepG2, 48 hours): normalized or were slightly upregulated
genes regulated in the Diabetes Arrays ([1]; HepG2 cells, genes: PPARGC1A, PRKAA1, SNAP25): List of genes regulated in the Diabetes Arrays when HepG2 cells
Indication of Early apoptosis (Bcl-2, annexin V, or caspase activation) (various cell types; BONE: Ewing's sarcoma (NCI), wrapped cell reads Extremely strong): Extremely
Indication of Early apoptosis (Bcl-2, annexin V, or caspase activation) (various cell types; BREAST: Mammary fiboblasts: 184A1 and 184B5) (Lawrence Berkeley)): None
Indication of Early apoptosis (Bcl-2, annexin V, or caspase activation) (various cell types; SKIN: Melanoma (Skmel 2)): Very Strong
Indication of Early apoptosis (Bcl-2, annexin V, or caspase activation) (various cell types; SKIN: Melanoma (Skmel 28)): Strong
Indication of Early apoptosis (Bcl-2, annexin V, or caspase activation) (various cell types; SKIN: SCC, Squamous cell carcinoma): Very Strong
dose dependent response of cancer vs control cell lines (various cell types; keratinocytes, melanocytes vs SK-MEL-28, SK-MEL-2, SCC, PaCa2, HEP-G2, various levels): induction of apoptosis and cell death in the cancer cells only
efficacy of treatment by cell type (various cell types; oncogenic cell lines of differing aggressiveness): greater in cell types that exhibited increased oncogenicity and/or greater metastatic potential
OCR values [2]: consistent reduction in OCR values
expression of CCL5 (HASMC cells; HASMC cells): significant decrease in the expression of CCL5
expression of AGT, CEACAM1, INSR, SELL, IL-6, TNF, CCL5 (HASMC cells; hyperglycemic HASMC cells): altered expression of genes
